The source of these data is patent US20250281564A1, “DYSREGULATION OF NEUROPROTEASOMES BY APOE ISOFORMS DRIVES ENDOGENOUS TAU AGGREGATION” (The Trustees of Columbia University in the City of New York, priority 2022, published 2025).

One data set deals with primary cortical neurons. The experiment in a line: Permeability of iBEp in primary cortical neurons: membrane fractionation and biotin blot. Type of data set: cell-based, mouse. The note with it: 1 μM, 1, 6 and 24 hours, cytosolic vs membrane fraction. The text has this:
(§1) (FIG. 4A) (Top) Structure of azide-PEG24-epoxomicin handle to enable rapid conjugation of linkers to global proteasome inhibitor epoxomicin using Click chemistry. (Bottom) Structure of Neuroproteasome-specific inhibitor impermeant Biotin-PEG24-Epoxomicin (iBEp). (FIG. 4B) Assessing permeability of iBEp in primary neurons. […] Cytosolic (Cyto) and membrane (Mem) fractions were immunoblotted using indicated antibodies. (FIG. 4C) Proteasome catalytic activity of membrane (Mem) and cytosolic (Cyto) fractions of neurons treated with iBEp. […] Proteasome catalytic activity was assessed by monitoring degradation of Suc-LLVY-AMC; proteasome-dependent cleavage of the substrate increases AMC fluorescence. N=3 biological replicates. **** p<0.0001 by One-Way ANOVA. (FIG. 4D) Primary neurons treated with iBEp probed for autophagy markers. […] Quantification of p62, LC3b, and Ulk1 intensities normalized to Actin. […] Sarkosyl-soluble and insoluble fractions were labeled with Tandem Mass Tags (TMTpro) for quantitative mass spectrometry. (FIG. 4F) Differential enrichment of proteins in the sarkosyl-soluble fraction of neurons treated with iBEp versus DMSO was analyzed and plotted as log 2-fold change vs-log 10 (P-value). […] (FIG. 4H) Differential enrichment of proteins in the sarkosyl-insoluble fraction of neurons treated with iBEp versus DMSO was analyzed and plotted as log 2-fold change vs −log 10 (P-value). […]

Another data set has as its system newly synthesized Tau. The experiment in a line: Puro-PLA-Tau: proximity ligation with puromycylation for newly synthesized Tau. Type of data set: cell-based. The text has this: Analysis was done blinded to experimental condition. […] Scale bar=100 μm (right).
The next data set has as its target T1, cytosolic proteasomes (Mus musculus, UniProt O55234+P70195+Q60692).
T1 construct: endogenous in cells; host or cells: primary cortical neurons from WT mice (DIV13-14); membrane and cytosolic fractions
The experiment in a line: Suc-LLVY-AMC proteasome activity, cytosolic fraction of iBEp-treated neurons. The format is cell-based. The note with it: 6 hours, DIV14 neurons, vs DMSO.
Description: as §1

The target in a further data set is T2, neuroproteasomes (Mus musculus, UniProt O55234+P70195+Q60692).
T2 construct: endogenous in cells; host or cells: primary cortical neurons from WT mice (DIV13-14); membrane and cytosolic fractions
Description: Suc-LLVY-AMC proteasome activity, membrane fraction of iBEp-treated neurons. The note with it: 6 hours, DIV14 neurons, vs DMSO. The format is cell-based.
Description: as §1

The nature of data set [1]: iBEp permeability in vivo: stereotactic CA1 injection and membrane fractionation. Set-up: species or system mouse. The note with it: stereotactic injection into CA1, 72 hours.
Data set [2] has as its system Tau. Description: Quantitative TMT phosphoproteomics of Tau in iBEp-treated WT neurons. The note with it: 1 μM, 1, 6 or 24 hours, WT primary neurons. The format is cell-based, mouse. An excerpt:
We noticed that neuroproteasome inhibition induces the shift of sarkosyl-insoluble Tau into a species which migrates at a higher molecular weight on an SDS-PAGE gel, at approximately 64 kDa (FIG. 5A, FIG. 5B, FIG. 5D, FIG. 5F, FIG. 5G). Similar shifts in molecular weight of Tau are observed in the AD brain and is a hallmark phenotype of multiple neurodegenerative disorders (109, 110). This molecular weight shift can in part be due to Tau phosphorylation at many residues. Therefore, we wanted to address whether iBEp-induced Tau aggregates are phosphorylated. Rather than profiling by a panel of phospho-specific antibodies against Tau, we took a more unbiased approach and measured Tau phosphorylation by quantitative phosphoproteomics. We treated primary WT neurons with iBEp for either 1, 6, or 24 hours and then performed sarkosyl fractionations.

Data set [3] has as its system Thioflavin S-positive aggregates. Description: Thioflavin S staining of hippocampal sections of hTau-KI mice after stereotactic injection. The note with it: stereotactic injection, 72 hours, vs vehicle.
Description: (§2) Scale bars=15 μm (FIG. 6C) Immunohistochemical analysis of mice stereotactically injected with iBEp to measure Tau phosphorylation in vivo. […] Mice were collected 72 hours post injection and sections were stained using indicated antibodies: NeuN (blue) and AT8 (pTau, green). 4×, 20× and 60× representative images are shown. Quantification of pTau signal intensity was normalized to NeuN intensity. Analysis was done blinded to experimental condition. Data are mean±SEM normalized either to DMSO or iBEP+CHX. n=2 sections/animal, ** p<0.01 by Paired T-test/experiment. Scale bars=500 μm (left), scale bar=25 μm (right). (FIG. 6D) Immunohistochemical analysis of mice stereotactically injected with iBEp to measure Thioflavin-S positive Tau aggregates in vivo. Four-to-five month old hTau-KI mice were treated identically to (FIG. 6C), but stained for Thioflavin S (magenta) to visualize β-sheet containing aggregates and immunostained with NeuN (blue). N=7 (3M, 4F). Left, Vehicle-treated hippocampus, Right, iBEp-treated hippocampus (red). […] Data are quantification of number of flame-like Thioflavin-S positive inclusions. Counting and analysis was blinded to experimental condition. *** p<0.001 by one-way ANOVA. Scale bars=100 μm. (FIG. 6E) Higher magnification image of flame-like Thioflavin S-positive inclusions (magenta), NeuN (blue). Top, ThioS alone, Bottom, merge with NeuN. Scale bar=20 μm. […]
The subject of data set [4] is Tau. The experiment in a line: Sarkosyl-insoluble Tau in hippocampus of hTau-KI mice after stereotactic injection. Type of data set: in vivo, mouse. The note with it: 6.4 μM iBEp stereotactic, contralateral vehicle, 72 hours.
The subject of data set [5] is Tau. The experiment in a line: iBEp dose range in hTau/ApoE double KI primary neurons, sarkosyl-insoluble Tau. Type of data set: cell-based, mouse.
The subject of another data set is p62, LC3bI/II, Ulk1. Description: Autophagy marker immunoblot in primary neurons. The note with it: 12 hours, DIV14 WT primary cortical neurons. The format is cell-based, mouse. An excerpt: (FIG. 4A) (Top) Structure of azide-PEG24-epoxomicin handle to enable rapid conjugation of linkers to global proteasome inhibitor epoxomicin using Click chemistry. (Bottom) Structure of Neuroproteasome-specific inhibitor impermeant Biotin-PEG24-Epoxomicin (iBEp). (FIG. 4B) Assessing permeability of iBEp in primary neurons. […] Cytosolic (Cyto) and membrane (Mem) fractions were immunoblotted using indicated antibodies. (FIG. 4C) Proteasome catalytic activity of membrane (Mem) and cytosolic (Cyto) fractions of neurons treated with iBEp. […] Proteasome catalytic activity was assessed by monitoring degradation of Suc-LLVY-AMC; proteasome-dependent cleavage of the substrate increases AMC fluorescence. N=3 biological replicates. **** p<0.0001 by One-Way ANOVA. (FIG. 4D) Primary neurons treated with iBEp probed for autophagy markers. […] Lysates were immunoblotted using indicated antibodies against common autophagy markers. Quantification of p62, LC3b, and Ulk1 intensities normalized to Actin. […] (FIG. 4E) Schematic to analyze changes in sarkosyl-soluble and insoluble proteomes in response to neuroproteasome inhibition. […] Sarkosyl-soluble and insoluble fractions were labeled with Tandem Mass Tags (TMTpro) for quantitative mass spectrometry. (FIG. 4F) Differential enrichment of proteins in the sarkosyl-soluble fraction of neurons treated with iBEp versus DMSO was analyzed and plotted as log 2-fold change vs-log 10 (P-value). Green dots represent proteins enriched in the iBEp treatment compared to DMSO treatment. (FIG. 4G) Graphs plotting the log 2-fold change of select Neuroproteasome substrates enriched in the sarkosyl-soluble fraction from MS analysis in (FIG. 4F) compared to UPS substrates and autophagy markers ** p<0.01 (adjusted p-value after multiple corrections). (FIG. 4H) Differential enrichment of proteins in the sarkosyl-insoluble fraction of neurons treated with iBEp versus DMSO was analyzed and plotted as log 2-fold change vs −log 10 (P-value). Green dots represent proteins enriched in the iBEp treatment compared to DMSO treatment. (FIG. 4I) (Left) Identification of proteins which are exclusively enriched in the insoluble fraction with no corresponding change in the soluble fraction (red). Plk2 represents the only protein which is enriched in the soluble fraction with no corresponding change in the insoluble fraction (green). Proteins plotted as differences in log 2 fold changes. (Right) Graphs plotting the log 2 fold changes of insoluble Tau (top) and soluble Tau (bottom) enriched in neurons treated with iBEp vs DMSO. ** p<0.01 (adjusted p-value after multiple corrections).
FIG. 5A-5G: Neuroproteasomes are differentially regulated by ApoE isoforms to determine formation of endogenous sarkosyl-insoluble Tau inclusions. […]

The next data set concerns phosphorylated Tau. The experiment in a line: Immunohistochemistry for phosphorylated Tau (AT8) in hTau-KI mice after stereotactic injection. The note with it: stereotactic injection, 72 hours, vs contralateral control.
Setting [6] is: dose range 1000-1.6 nM, hTau/ApoE double KI neurons.

Description for phosphorylated Tau: as §2

With `CC[C@H](C)[C@H](NC(=O)CCOCCOCCOCCOCCOCCOCCOCCOCCOCCOCCOCCOCCOCCOCCOCCOCCOCCOCCOCCOCCOCCOCCOCCOCCn1cc(COCCOCCOCCOCCNC(=O)CCCC[C@@H]2SC[C@@H]3NC(=O)N[C@@H]32)nn1)C(=O)N[C@H](C(=O)N[C@H](C(=O)N[C@@H](CC(C)C)C(=O)[C@@]1(C)CO1)[C@@H](C)O)[C@@H](C)CC` [iBEp, Biotin-PEG24-Epoxomicin], the “location of the biotin signal of covalent proteasome inhibition (permeability)” value in the data set on primary cortical neurons is “only in the membrane fraction, and not in the cytosol”. Further, the “increase in Puro-PLA-Tau signal relative to DMSO” value with newly synthesized Tau (DIV14 primary hippocampal neurons, puromycin 10 minutes) is reported as around 3.5 fold. In addition, the “newly synthesized Tau puncta greater than 24 nm in diameter” value with newly synthesized Tau (normalized to puncta number per size bin with DMSO) is recorded as “over twofold increase”. Also, the cytosolic proteasome activity entry at cytosolic proteasomes is “remains completely intact”. Besides, the “proteasome activity in the membrane fraction” value on neuroproteasomes is “almost entirely abrogated”. Also, in data set [1], the “injected concentration at which penetration into the cytosol is observed” value came to 64 µM. In the data set on Tau [2], the “Tau phosphorylation sites (human S202, T205, T217, S404)” value is reported as “time-dependent increase in Tau phosphorylation at only 4 of 26 identified sites”. For the same molecule, the “ThioS staining in the CA1 region of hippocampi” value in data set [3] was “strong increase in ThioS staining”. Besides, the “sarkosyl-insoluble Tau in hippocampi of hTau-KI mice” value in the data set with Tau [4] is “strong increase of sarkosyl-insoluble Tau”. For the same molecule, in the data set with Tau [5] (dose range 1000, 200, 40, 8 and 1.6 nM), the “sarkosyl-insoluble Tau in hTau/E4-dKI neurons at the lowest dose” value was “accumulation of sarkosyl-insoluble Tau in hTau/E4-dKI neurons”. Further, in the data set on Tau [5] (setting [6]), the “susceptibility to Tau aggregation, E4 neurons vs E3 neurons (more susceptible)” value is reported as “over 25 fold” and the “susceptibility to Tau aggregation, hTau/E2-dKI vs hTau/E3-dKI neurons (less susceptible)” value was “over 10 fold”. Also, in the data set on p62, LC3bI/II, Ulk1, the LC3bI/II entry is “no change in either p62 or LC3bI/II levels” and the p62 levels result was “no change in either p62 or LC3bI/II levels”. For the same molecule, the “phosphorylated Tau (AT8) signal in injected hippocampi” value with phosphorylated Tau is reported as “threefold induction of phosphorylated Tau signal”.
